In this experiment the target is T1, hGIP-R (Homo sapiens, UniProt P48546).
T1 construct: expressed in transfected cells; host or cells: HEK-293 clonal cell lines
T1 sequence (P48546 22-466): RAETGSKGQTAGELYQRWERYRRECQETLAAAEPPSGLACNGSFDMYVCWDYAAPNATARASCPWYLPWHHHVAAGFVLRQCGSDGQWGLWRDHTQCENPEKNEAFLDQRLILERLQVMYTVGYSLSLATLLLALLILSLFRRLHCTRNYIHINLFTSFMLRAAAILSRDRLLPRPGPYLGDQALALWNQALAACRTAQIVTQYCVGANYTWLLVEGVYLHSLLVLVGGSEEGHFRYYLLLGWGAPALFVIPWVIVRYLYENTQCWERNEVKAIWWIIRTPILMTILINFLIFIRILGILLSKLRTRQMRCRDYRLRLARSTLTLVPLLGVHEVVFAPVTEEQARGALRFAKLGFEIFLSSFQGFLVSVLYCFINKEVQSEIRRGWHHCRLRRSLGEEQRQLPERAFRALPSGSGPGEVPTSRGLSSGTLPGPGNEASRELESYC
Nature of the experiment: Functional hGIP-R Assay (cAMP formation, HTRF). Format: cell-based. The conditions noted are these: for Emax: cAMP efficacy, percent of maximal response to GIP(1-42)OH, 37° C., 0.1% bovine casein, arithmetic mean ± SEM; for EC50: cAMP potency, HEK-293 cells expressing hGIP-R, incubated at 37° C. in the presence of 0.1% bovine casein, geometric mean, read-out: Human GIP-R EC50, nM (SEM, n). The essentials: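 Relative EC50 and Emax came from four-parameter logistic fits of cAMP as a percent of the human GIP (1-42) OH maximal response. The cAMP was measured by competitive HTRF after 30 min, 37 °C compound exposure of hGIP-R HEK-293 clones in IBMX (250 μM)-containing medium.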
(In general: cAMP levels reflect the balance of adenylyl cyclase and phosphodiesterase activity.)

Molecules are shown by their SMILES.

This note sets out measurements from US20260108546A1 (ELI LILLY AND COMPANY, priority 2024, published 2026).

For orientation: Emax means the maximal effect, on the per cent scale that the assay sets. Broadly, the EC50 is the midpoint of the concentration-response curve.

As to `CC(C)(Cc1ccc(F)cn1)NC(=O)[C@@H](Cc1cnc2ncccn12)NC(=O)[C@H]1C[C@@H]1c1ccc(-c2cnc3nc(C(F)(F)F)cn3c2)cc1` [Example 85, (1S,2S)-N-((R)-1-((1-(5-Fluoropyridin-2-yl)-2-methylpropan-2-yl)amino)-3-(imidazo[1,2-a]pyrimidin-3-yl)-1-oxopropan-2-yl)-2-(4-(2-(trifluoromethyl)imidazo[1,2-a]pyrimidin-6-yl)phenyl)cyclopropane-1-carboxamide], the Emax was 87 ± 0.761% and the EC50 amounted to 41 nM.
For `CC(C)(Cc1ccc(F)cc1)NC(=O)[C@@H](Cc1cnc2ncccn12)NC(=O)[C@H]1C[C@@H]1c1ccc(-c2cnc3nc(C(F)(F)F)cn3c2)cc1` [Example 86, (1S,2S)-N-((R)-1-((1-(4-Fuorophenyl)-2-methylpropan-2-yl)amino)-3-(imidazo[1,2-a]pyrimidin-3-yl)-1-oxopropan-2-yl)-2-(4-(2-(trifluoromethyl)imidazo[1,2-a]pyrimidin-6-yl)phenyl)cyclopropane-1-carboxamide] the same measures were 71.1 ± 2.32% and 10.2 nM.
For `CC(C)(Cc1ccc(F)cc1)NC(=O)[C@@H](Cc1cnc2ncccn12)NC(=O)[C@H]1C[C@@H]1c1ccc(-c2cnc3nccn3c2)cc1` [Example 87, (1S,2S)-N-((R)-1-((1-(4-Fluorophenyl)-2-methylpropan-2-yl)amino)-3-(imidazo[1,2-a]pyrimidin-3-yl)-1-oxopropan-2-yl)-2-(4-(imidazo[1,2-a]pyrimidin-6-yl)phenyl)cyclopropane-1-carboxamide] the same measures were 71.1 ± 9.09% and 52.7 nM.
For `CN(C(=O)[C@H]1C[C@@H]1c1ccc(-c2cnc3nn(C(F)F)cc3c2)cc1)[C@H](Cc1cnn(C)c1)C(=O)NC(C)(C)Cn1nc(C(F)(F)F)cc1-c1ccc(=O)n(C)c1` [Example 88, (1S,2S)-2-(4-(2-(Difluoromethyl)-2H-pyrazolo[3,4-b]pyridin-5-yl)phenyl)-N-methyl-N-((R)-1-((2-methyl-1-(5-(1-methyl-6-oxo-1,6-dihydropyridin-3-yl)-3-(trifluoromethyl)-1H-pyrazol-1-yl)propan-2-yl)amino)-3-(1-methyl-1H-pyrazol-4-yl)-1-oxopropan-2-yl)cyclopropane-1-carboxamide] the same measures were 116% and 89 nM.
On to `CN(C(=O)[C@H]1C[C@@H]1c1ccc(-c2cnc3nn(C(F)(F)F)cc3c2)cc1)[C@H](Cc1cnn(C)c1)C(=O)NC(C)(C)Cn1nc(C(F)(F)F)cc1-c1ccc(=O)n(C)c1` [Example 89, (1S,2S)-N-Methyl-N-((R)-1-((2-methyl-1-(5-(1-methyl-6-oxo-1,6-dihydropyridin-3-yl)-3-(trifluoromethyl)-1H-pyrazol-1-yl)propan-2-yl)amino)-3-(1-methyl-1H-pyrazol-4-yl)-1-oxopropan-2-yl)-2-(4-(2-(trifluoromethyl)-2H-pyrazolo[3,4-b]pyridin-5-yl)phenyl)cyclopropane-1-carboxamide], for which the maximal response (Emax) came to 32.3% and the half-maximal effective concentration (EC50) came out at 152 nM.
For the compound `COCc1cn2cc(-c3ccc([C@H]4C[C@@H]4C(=O)N(C)[C@H](Cc4cnn(C)c4)C(=O)NC(C)(C)Cn4nc(C(F)(F)F)cc4-c4ccc(=O)n(C)c4)cc3)cnc2n1` [Example 90, (1S,2S)-2-(4-(2-(Methoxymethyl)imidazo[1,2-a]pyrimidin-6-yl)phenyl)-N-methyl-N-((R)-1-((2-methyl-1-(5-(1-methyl-6-oxo-1,6-dihydropyridin-3-yl)-3-(trifluoromethyl)-1H-pyrazol-1-yl)propan-2-yl)amino)-3-(1-methyl-1H-pyrazol-4-yl)-1-oxopropan-2-yl)cyclopropane-1-carboxamide], the Emax is 120% and the EC50 was found to be 45.5 nM.
As to `Cc1cn2cc(-c3ccc([C@H]4C[C@@H]4C(=O)N(C)[C@H](Cc4cnn(C)c4)C(=O)NC(C)(C)Cn4nc(C(F)(F)F)cc4-c4ccc(=O)n(C)c4)cc3)cnc2n1` [Example 91, (1S,2S)-N-Methyl-N-((R)-1-((2-methyl-1-(5-(1-methyl-6-oxo-1,6-dihydropyridin-3-yl)-3-(trifluoromethyl)-1H-pyrazol-1-yl)propan-2-yl)amino)-3-(1-methyl-1H-pyrazol-4-yl)-1-oxopropan-2-yl)-2-(4-(2-methylimidazo[1,2-a]pyrimidin-6-yl)phenyl)cyclopropane-1-carboxamide], the maximum response (Emax) amounted to 114% and the half-maximal effective concentration (EC50) was determined as 60.9 nM.
For `Cn1cc(C[C@@H](NC(=O)[C@H]2C[C@@H]2c2ccc(-c3cnc4nn(C)cc4c3)cc2)C(=O)NC(C)(C)Cn2nc(C(F)(F)F)cc2-c2cn[nH]n2)cn1` [Example 92, (1S,2S)-N—((R)-1-((1-(5-(2H-1,2,3-Triazol-4-yl)-3-(trifluoromethyl)-1H-pyrazol-1-yl)-2-methylpropan-2-yl)amino)-3-(1-methyl-1H-pyrazol-4-yl)-1-oxopropan-2-yl)-2-(4-(2-methyl-2H-pyrazolo[3,4-b]pyridin-5-yl)phenyl)cyclopropane-1-carboxamide] the same measures were 126 ± 1.93% and 47.1 nM.
For `Cn1cc(C[C@@H](NC(=O)[C@H]2C[C@@H]2c2ccc(-c3cnc4nn(C)cc4c3)cc2F)C(=O)NC(C)(C)Cn2nc(C(F)(F)F)cc2-c2cn[nH]n2)cn1` [Example 93, (1S,2S)-N—((R)-1-((1-(5-(2H-1,2,3-Triazol-4-yl)-3-(trifluoromethyl)-1H-pyrazol-1-yl)-2-methylpropan-2-yl)amino)-3-(1-methyl-1H-pyrazol-4-yl)-1-oxopropan-2-yl)-2-(2-fluoro-4-(2-methyl-2H-pyrazolo[3,4-b]pyridin-5-yl)phenyl)cyclopropane-1-carboxamide] the same measures were 115 ± 1.41% and 15.3 nM.
For `Cc1ccc2cc(-c3ccc([C@H]4C[C@@H]4C(=O)N[C@H](Cc4cnn(C)c4)C(=O)NC(C)(C)Cn4nc(C(F)(F)F)cc4-c4cn[nH]n4)cc3)cnc2n1` [Example 94, (1S,2S)-N—((R)-1-((1-(5-(2H-1,2,3-Triazol-4-yl)-3-(trifluoromethyl)-1H-pyrazol-1-yl)-2-methylpropan-2-yl)amino)-3-(1-methyl-1H-pyrazol-4-yl)-1-oxopropan-2-yl)-2-(4-(7-methyl-1,8-naphthyridin-3-yl)phenyl)cyclopropane-1-carboxamide] the same measures were 101% and 35.4 nM.
As for `Cn1cc(C[C@H](C(=O)NC(C)(C)Cn2nc(C(F)(F)F)cc2-c2cn[nH]n2)N2CC[C@@]3(C[C@@H]3c3ccc(-c4cnc5nn(C)cc5c4)cc3)C2=O)cn1` [Example 95, (R)—N-(1-(5-(2H-1,2,3-Triazol-4-yl)-3-(trifluoromethyl)-1H-pyrazol-1-yl)-2-methylpropan-2-yl)-3-(1-methyl-1H-pyrazol-4-yl)-2-((1R,3R)-1-(4-(2-methyl-2H-pyrazolo[3,4-b]pyridin-5-yl)phenyl)-4-oxo-5-azaspiro[2.4]heptan-5-yl)propanamide], the maximal effect (Emax) turned out to be 90 ± 2.84% and the EC50 was 48.1 nM.
For `Cn1cc(C[C@@H](NC(=O)[C@H]2C[C@@H]2c2ccc(-c3cnc4nn(C)cc4c3)cc2)C(=O)NC(C)(C)Cn2nc(C(F)(F)F)cc2-c2cnn3c2CNCC3)cn1` [Example 96, (1S,2S)-N—((R)-1-((2-methyl-1-(5-(4,5,6,7-tetrahydropyrazolo[1,5-a]pyrazin-3-yl)-3-(trifluoromethyl)-1H-pyrazol-1-yl)propan-2-yl)amino)-3-(1-methyl-1H-pyrazol-4-yl)-1-oxopropan-2-yl)-2-(4-(2-methyl-2H-pyrazolo[3,4-b]pyridin-5-yl)phenyl)cyclopropane-1-carboxamide] the same measures were 104 ± 4.57% and 169 nM.
For the compound `Cn1cc(C[C@@H](NC(=O)[C@H]2C[C@@H]2c2ccc(NC(=O)Nc3ccc(F)cc3)cc2)C(=O)NC(C)(C)Cc2ccc(F)cc2)cn1` [Example 97, (1S,2S)-N—((R)-1-((1-(4-Fluorophenyl)-2-methylpropan-2-yl)amino)-3-(1-methyl-1H-pyrazol-4-yl)-1-oxopropan-2-yl)-2-(4-(3-(4-fluorophenyl)ureido)phenyl)cyclopropane-1-carboxamide], the Emax is 96.6 ± 4.57% and the EC50 amounted to 38.6 nM.
With `Cn1cc(C[C@H](C(=O)NC(C)(C)Cn2nc(C(F)(F)F)cc2-c2ccc(=O)n(C)c2)N2CC[C@@]3(C[C@@H]3c3ccc(-c4cnc5nn(C)cc5c4)cc3)C2=O)cn1` [Example 98, (R)—N-(2-Methyl-1-(5-(1-methyl-6-oxo-1,6-dihydropyridin-3-yl)-3-(trifluoromethyl)-1H-pyrazol-1-yl)propan-2-yl)-3-(1-methyl-1H-pyrazol-4-yl)-2-((1R,3R)-1-(4-(2-methyl-2H-pyrazolo[3,4-b]pyridin-5-yl)phenyl)-4-oxo-5-azaspiro[2.4]heptan-5-yl)propanamide], the Emax worked out at 110 ± 3.22% and the EC50 turned out to be 35.5 nM.
